Laboratory results taken from publication PMC2719696, “Kinetics and Cellular Site of Glycolipid Loading Control the Outcome of Natural Killer T Cell Activation” (Immunity, 2009).

Molecular target: T1, mCD1d.WT (Mus musculus, UniProt P11609)
T1 construct: expressed in transfected cells; host or cells: A20 B lymphoma cells (provided by M. Kronenberg)
T1 sequence (P11609 22-336): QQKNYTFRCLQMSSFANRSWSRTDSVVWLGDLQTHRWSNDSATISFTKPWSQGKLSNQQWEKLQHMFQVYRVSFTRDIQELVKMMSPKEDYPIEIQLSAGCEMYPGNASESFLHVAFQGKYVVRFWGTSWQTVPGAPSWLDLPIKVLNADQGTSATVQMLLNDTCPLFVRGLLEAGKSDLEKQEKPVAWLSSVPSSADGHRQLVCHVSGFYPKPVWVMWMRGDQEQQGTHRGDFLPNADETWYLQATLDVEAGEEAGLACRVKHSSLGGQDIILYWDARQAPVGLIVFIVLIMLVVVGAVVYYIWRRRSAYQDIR
T1 sequence (P01887 21-119 partner): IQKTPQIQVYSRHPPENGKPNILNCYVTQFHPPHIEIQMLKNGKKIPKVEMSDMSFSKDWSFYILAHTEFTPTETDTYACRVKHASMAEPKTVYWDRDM
Test: iNKT hybridoma DN3A4.1-2 stimulation with A20 cells expressing wild-type mCD1d, IL-2 release
Type: cell-based
Details: A20 B lymphoma cells expressing mCD1d.WT; compared to all Th2 cell-type cytokine-biasing analogs
Experimental: Figure 4 Cell Surface versus Intracellular Loading of mCD1d with Different αGalCer Analogs (A) On the left, surface accumulation of CD1d-αGalCer complexes was studied with JAWS II cells harvested after incubation with the indicated glycolipids for 1, 4, or 16 hr and then stained without permeabilization with mAb L363 (red). Cells were then fixed, stained with DAPI for nuclei visualization (blue), and analyzed by confocal microscopy. On the right, the intracellular formation and trafficking of CD1d-αGalCer complexes were analyzed by treatment of JAWS II cells with αGalCer analogs for 1, 4, and 16 hr followed by fixation and permeabilization. The cells were stained for CD1d-αGalCer complexes (L363, red), late endosomes and lysosomes (anti-LAMP-1, green), and nuclei (DAPI, blue). Results are representative of three separate experiments. The scale bar represents 10 μm. […] Supernatant concentrations of IL-2 release were determined after 12 hr. […]
For in vitro stimulation, murine iNKT hybridomas at 5 × 10^4 cells/well in 96-well plates were stimulated with an equal number of either JAWS II cells or transfected A20 cells in complete medium with glycolipids for 12 hr at 37°C, and levels of murine IL-2 secretion were determined. […] Subsequently the levels of IL-4, IL-13, and IFN-γ in culture supernatants were quantified by capture ELISA. […]

Row | SMILES | relative potency at activating iNKT cells
1 | CCCCCCCCCCCCCCCCCCCCCCCCCC(=O)NC(COC1OC(CO)C(O)C(O)C1O)C(O)C(O)CCCCCCCCCCCCCC (centres unmarked) [αGalCer-C26:0, reference compound] | significantly more potent
2 | CCCCCCCCCCCCCCCCCCCCCCCC(=O)NC(COC1OC(CO)C(O)C(O)C1O)C(O)C(O)CCCCCCCCCCCCCC (centres unmarked) [αGalCer-C24:0] | significantly more potent
